Test results taken from patent US5298494A, “Monosaccharides having anti-proliferation and anti-inflammatory activity, compositions and uses thereof” (Greenwich Pharmaceuticals Incorporated, priority 1993, dated 1994).

What was measured:
[1] = system: T cell proliferation in mouse spleen cell mixed lymphocyte cultures; assay: Mixed Lymphocyte Reaction (MLR) assay; format: cell-based, mouse (Balb/c responder, C57B1/6 stimulator); conditions: for % Change From Control, MLR / Mean O.D. Allogenic / Mean O.D. Syngeneic: Table X
In short: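 Balb/c responder spleen cells (2.5×10^5) co-cultured with mitomycin C-treated C57Bl/6 stimulators (5×10^5) for 5 days at 37 C with compound dilutions of 3–300 uM or DMSO. Proliferation read by MTT (OD 570-650 nm). Allogeneic minus syngeneic means were expressed as % change from vehicle control.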

[2] = system: Interleukin 1 (IL-1) production by peritoneal macrophages; assay: IL-1 Assay: production of interleukin-1 by peritoneal macrophages (thymocyte bioassay); format: cell-based, mouse (C57B1/6); design: inhibition: dose or concentration left out as unconfirmed
Source text: Interleukin 1 (IL-1) is a potent immunomodulatory cytokine that has a broad range of pro-inflammatory activities. IL-1 is known to be produced by activated accessory cells such as macrophages. Accessory cell production of IL-1 results in the activation and proliferation of T and B lymphocytes. Therefore, by inhibiting macrophage activation and production of IL-1, the activation and proliferation of the cellular effectors of inflammation can be modulated. Compounds of the invention were screened for inhibitory activity in a classical IL-1 assay. Six to 8 week old male C57B1/6 mice were purchased from Harlan Sprague Dawley. Peritoneal macrophages were elicited by the administration to mice of a single intraperitoneal injection of 0.2 ml of complete Freund's adjuvant. After 48 hours, elicited macrophages were removed from the mice by lavage with the use of Hank's balanced salt solution. […] To the macrophage cultures were added various doses of the compounds of the invention and 10 ug/ml of the macrophage activator lipopolysaccharide (to stimulate IL-1 production). Control cultures consisted of macrophages, lipopolysaccharide and culture medium containing various doses of DMSO only. […] The amount of IL-1 produced in the individual wells was determined in a bioassay for IL-1. This involved the removal of thymuses from mice less than 8 weeks of age. Thymocytes were isolated by passing each thymus through a stainless steel mesh screen. […] After 18 hours cells were harvested and radioactive incorporation (as a measure of cell proliferation) was quantitated in a liquid scintillation counter. The students t test was used to determine the significance of the difference between experimental and control values.

CCCCCCCOCCCO[C@@H]1[C@H]2OC(C)(C)O[C@H]2O[C@@H]1[C@H](O)CO [IIg]
% Change From Control, MLR ([1]; 3 ugm): -61% | % Change From Control, MLR ([1]; 10 ugm): -15% | Mean O.D. Allogenic ([1]; 10 ugm): 0.197 O.D. | Mean O.D. Syngeneic ([1]; 10 ugm): 0.070 O.D. | % Change From Control, MLR ([1]; 30 ugm): -36% | Mean O.D. Allogenic ([1]; 30 ugm): 0.171 O.D. | Mean O.D. Syngeneic ([1]; 30 ugm): 0.075 O.D. | % Change From Control, MLR ([1]; 100 ugm): -101% | % Change From Control, MLR ([1]; 300 ugm): -97% | strong non-dose dependent inhibition in MLR ([1]; several concentrations): greater than -50 % of control | ^3 H-Thymidine uptake by thymocytes ([2]; 0.001 ug/ml): 8,823 ± 771 cpm | ^3 H-Thymidine uptake by thymocytes ([2]; 0.01 ug/ml): 7,873 ± 379 cpm | ^3 H-Thymidine uptake by thymocytes ([2]; 0.1 ug/ml): 8,790 ± 533 cpm | ^3 H-Thymidine uptake by thymocytes ([2]; 1 ug/ml): 7,307 ± 680 cpm | ^3 H-Thymidine uptake by thymocytes ([2]; 2.5 ug/ml): 7,229 ± 471 cpm | ^3 H-Thymidine uptake by thymocytes ([2]; 10 ug/ml): 4,854 ± 471 cpm | ^3 H-Thymidine uptake by thymocytes ([2]; 25 ug/ml): 3,265 ± 141 cpm | ^3 H-Thymidine uptake by thymocytes ([2]; 100 ug/ml): 934 ± 43 cpm | inhibition at 0.001 µg/mL ([2]; Mus musculus, Peritoneal macrophage, 0.001 ug/ml, read-out: % effect on IL-1 production (thymidine uptake by thymocytes)): -8% | inhibition at 0.01 µg/mL ([2]; Mus musculus, Peritoneal macrophage, 0.01 ug/ml, read-out: % effect on IL-1 production (thymidine uptake by thymocytes)): 4% | inhibition at 0.1 µg/mL ([2]; Mus musculus, Peritoneal macrophage, 0.1 ug/ml, read-out: % effect on IL-1 production (thymidine uptake by thymocytes)): -14% | inhibition at 2.5 µg/mL ([2]; Mus musculus, Peritoneal macrophage, 2.5 ug/ml, read-out: % effect on IL-1 production (thymidine uptake by thymocytes)): 13% | inhibition at 10 µg/mL ([2]; Mus musculus, Peritoneal macrophage, 10 ug/ml, read-out: % effect on IL-1 production (thymidine uptake by thymocytes)): 37% | inhibition at 25 µg/mL ([2]; Mus musculus, Peritoneal macrophage, 25 ug/ml, read-out: % effect on IL-1 production (thymidine uptake by thymocytes)): 57% | inhibition at 100 µg/mL ([2]; Mus musculus, Peritoneal macrophage, 100 ug/ml, read-out: % effect on IL-1 production (thymidine uptake by thymocytes)): 80% | inhibition ([2]; Mus musculus, Peritoneal macrophage, read-out: % effect on IL-1 production (thymidine uptake by thymocytes)): 6%
